From ChEMBL document CHEMBL4808209 (J Med Chem, 2021)
≈ marks a conversion by molar mass, not a printed value.

Tests used:
NCI-H1581 = experiment: Antiproliferative activity against human NCI-H1581 cells assessed as inhibition of cell proliferation incubated for 3 days by Cell Titer Aqueous96 one solution reagent assay; conditions: NCI-H1581, 72 h
[1] = Solubility of the compound in FaSSIF by HPLC analysis; format: physicochemical
[2] = Inhibition of phosphorylated FGFR2alpha in human KATO III stomach cancer cell line spiked in human whole blood incubated for 4 hrs by ELISA; format: tissue-based
[3] = Antiproliferative activity against human B49 assessed as inhibition of cell proliferation incubated for 3 days by Cell Titer Aqueous96 one solution reagent assay; conditions: KATO III, 72 h
CYP3A4 [4] = biological target: T1, CYP3A4 (Homo sapiens, UniProt P08684); experiment: Time dependent inhibition of CYP3A4 enzyme activity in human liver microsomes at 20 uM using midazolam as substrate substrate preincubated for 30 mins in presence of NADPH relative to control; format: ADME; conditions: probe midazolam, read-out: TDI
T1 sequence (P08684 whole entry): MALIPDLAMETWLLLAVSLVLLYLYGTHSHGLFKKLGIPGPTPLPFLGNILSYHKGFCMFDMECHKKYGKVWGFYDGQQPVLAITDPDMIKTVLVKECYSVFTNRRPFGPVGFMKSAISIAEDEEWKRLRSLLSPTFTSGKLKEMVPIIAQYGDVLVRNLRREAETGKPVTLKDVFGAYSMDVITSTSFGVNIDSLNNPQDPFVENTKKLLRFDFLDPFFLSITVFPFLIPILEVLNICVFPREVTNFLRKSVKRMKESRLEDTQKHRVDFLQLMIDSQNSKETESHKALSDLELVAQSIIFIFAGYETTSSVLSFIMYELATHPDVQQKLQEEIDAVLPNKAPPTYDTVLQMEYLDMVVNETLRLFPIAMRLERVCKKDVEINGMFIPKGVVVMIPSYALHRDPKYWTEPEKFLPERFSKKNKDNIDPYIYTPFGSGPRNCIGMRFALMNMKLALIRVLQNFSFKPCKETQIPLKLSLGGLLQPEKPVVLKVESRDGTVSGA

Aurora kinase B = Aurora kinase B (Homo sapiens, UniProt Q96GD4); experiment: Inhibition of AURKB (unknown origin) incubated for 90 mins in presence of ATP by HTRF assay
Aurora kinase B, sequence (Q96GD4 whole entry): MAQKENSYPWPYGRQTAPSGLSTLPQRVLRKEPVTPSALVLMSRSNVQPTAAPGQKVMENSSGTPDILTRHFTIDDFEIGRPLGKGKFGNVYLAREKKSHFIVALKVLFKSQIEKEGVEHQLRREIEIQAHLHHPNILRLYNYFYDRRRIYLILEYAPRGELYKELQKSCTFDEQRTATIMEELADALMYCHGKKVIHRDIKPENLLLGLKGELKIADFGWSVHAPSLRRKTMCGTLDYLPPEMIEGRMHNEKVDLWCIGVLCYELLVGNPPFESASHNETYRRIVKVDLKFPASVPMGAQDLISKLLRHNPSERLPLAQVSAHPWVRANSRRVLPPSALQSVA

[5] = biological target: Vascular endothelial growth factor receptor 2 (Homo sapiens, UniProt P35968); experiment: Inhibition of VEGFR2 (unknown origin) incubated for 90 mins in presence of ATP by HTRF assay
Vascular endothelial growth factor receptor 2, sequence (P35968 whole entry): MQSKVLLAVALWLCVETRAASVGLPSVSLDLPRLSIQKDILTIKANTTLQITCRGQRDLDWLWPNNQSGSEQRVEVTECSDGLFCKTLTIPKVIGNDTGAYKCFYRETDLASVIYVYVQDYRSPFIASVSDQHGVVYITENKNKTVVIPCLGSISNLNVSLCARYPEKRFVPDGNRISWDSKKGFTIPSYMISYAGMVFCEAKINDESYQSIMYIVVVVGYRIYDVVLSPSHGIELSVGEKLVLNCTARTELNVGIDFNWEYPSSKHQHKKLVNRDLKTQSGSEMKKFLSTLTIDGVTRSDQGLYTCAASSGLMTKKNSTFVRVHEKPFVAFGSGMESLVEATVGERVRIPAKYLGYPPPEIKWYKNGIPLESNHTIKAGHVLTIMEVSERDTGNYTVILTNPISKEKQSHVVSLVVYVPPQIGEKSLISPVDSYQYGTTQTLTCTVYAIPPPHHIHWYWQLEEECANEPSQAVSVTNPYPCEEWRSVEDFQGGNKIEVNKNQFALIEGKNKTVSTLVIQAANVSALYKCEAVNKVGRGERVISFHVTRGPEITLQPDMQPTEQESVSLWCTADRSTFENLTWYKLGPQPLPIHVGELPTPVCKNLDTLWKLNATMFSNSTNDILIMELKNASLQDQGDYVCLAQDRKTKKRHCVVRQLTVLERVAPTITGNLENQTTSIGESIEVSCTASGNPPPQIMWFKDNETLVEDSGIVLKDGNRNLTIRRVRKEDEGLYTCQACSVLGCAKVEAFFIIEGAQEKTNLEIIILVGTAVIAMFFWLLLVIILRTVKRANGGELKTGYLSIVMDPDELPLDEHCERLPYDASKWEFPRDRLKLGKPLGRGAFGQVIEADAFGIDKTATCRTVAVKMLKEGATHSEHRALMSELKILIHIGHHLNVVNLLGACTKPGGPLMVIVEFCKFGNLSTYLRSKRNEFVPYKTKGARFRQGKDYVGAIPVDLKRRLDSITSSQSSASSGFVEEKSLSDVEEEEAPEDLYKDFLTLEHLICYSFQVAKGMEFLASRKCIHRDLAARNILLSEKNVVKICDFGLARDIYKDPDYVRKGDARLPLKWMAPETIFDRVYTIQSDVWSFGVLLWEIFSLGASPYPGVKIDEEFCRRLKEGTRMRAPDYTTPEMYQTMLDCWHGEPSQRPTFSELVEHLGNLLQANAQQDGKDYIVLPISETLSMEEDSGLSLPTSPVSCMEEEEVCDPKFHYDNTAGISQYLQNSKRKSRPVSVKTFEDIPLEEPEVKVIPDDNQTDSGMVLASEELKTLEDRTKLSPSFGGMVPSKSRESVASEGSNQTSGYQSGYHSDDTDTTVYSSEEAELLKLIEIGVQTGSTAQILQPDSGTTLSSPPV

[6] = biological target: High affinity nerve growth factor receptor (Homo sapiens, UniProt P04629); experiment: Inhibition of TRKA (unknown origin) incubated for 90 mins in presence of ATP by HTRF assay
[7] = biological target: Mast/stem cell growth factor receptor Kit (Homo sapiens, UniProt P10721); experiment: Inhibition of c-KIT (unknown origin) incubated for 90 mins in presence of ATP by HTRF assay
Mast/stem cell growth factor receptor Kit, sequence (P10721 whole entry): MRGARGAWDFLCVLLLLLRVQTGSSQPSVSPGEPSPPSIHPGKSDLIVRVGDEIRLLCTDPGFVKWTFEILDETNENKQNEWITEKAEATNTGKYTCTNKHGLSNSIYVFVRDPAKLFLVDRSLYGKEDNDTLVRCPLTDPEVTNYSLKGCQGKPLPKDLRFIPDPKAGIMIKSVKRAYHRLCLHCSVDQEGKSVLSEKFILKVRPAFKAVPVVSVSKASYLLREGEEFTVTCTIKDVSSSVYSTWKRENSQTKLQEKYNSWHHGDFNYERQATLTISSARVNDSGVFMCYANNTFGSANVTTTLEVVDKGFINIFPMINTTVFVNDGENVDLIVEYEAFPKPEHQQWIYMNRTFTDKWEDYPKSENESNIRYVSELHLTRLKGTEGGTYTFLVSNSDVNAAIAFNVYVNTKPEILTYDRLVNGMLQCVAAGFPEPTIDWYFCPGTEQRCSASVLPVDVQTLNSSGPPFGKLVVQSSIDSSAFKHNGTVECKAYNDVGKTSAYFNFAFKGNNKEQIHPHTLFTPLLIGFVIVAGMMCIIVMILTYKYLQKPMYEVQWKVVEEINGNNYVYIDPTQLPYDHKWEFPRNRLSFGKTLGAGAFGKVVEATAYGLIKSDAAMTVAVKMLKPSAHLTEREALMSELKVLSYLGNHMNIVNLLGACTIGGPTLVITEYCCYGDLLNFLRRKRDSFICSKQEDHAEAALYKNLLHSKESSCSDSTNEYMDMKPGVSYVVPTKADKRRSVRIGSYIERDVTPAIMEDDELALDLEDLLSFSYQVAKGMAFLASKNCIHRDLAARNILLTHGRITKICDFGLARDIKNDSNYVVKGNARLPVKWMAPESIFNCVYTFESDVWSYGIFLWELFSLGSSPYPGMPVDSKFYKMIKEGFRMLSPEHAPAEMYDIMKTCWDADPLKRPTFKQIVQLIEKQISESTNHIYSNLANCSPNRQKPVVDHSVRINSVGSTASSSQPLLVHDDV

[8] = biological target: Platelet-derived growth factor receptor beta (Homo sapiens, UniProt P09619); experiment: Inhibition of PDGFR-beta (unknown origin) incubated for 90 mins in presence of ATP by HTRF assay
[9] = AUC in Sprague-Dawley rat at 5 mg/kg, po measured after 24 hrs; format: ADME, organism-based; set-up: route oral, dose 5 mg/kg, time 24 hrs; conditions: in vivo
Cytochrome P450 2C19 = Cytochrome P450 2C19 (Homo sapiens, UniProt P33261); experiment: Inhibition of CYP2C19 in human liver microsomes using s-mephenytoin as substrate substrate in presence of NADPH by LC-MS/MS analysis; format: ADME
Cytochrome P450 2C19, sequence (P33261 whole entry): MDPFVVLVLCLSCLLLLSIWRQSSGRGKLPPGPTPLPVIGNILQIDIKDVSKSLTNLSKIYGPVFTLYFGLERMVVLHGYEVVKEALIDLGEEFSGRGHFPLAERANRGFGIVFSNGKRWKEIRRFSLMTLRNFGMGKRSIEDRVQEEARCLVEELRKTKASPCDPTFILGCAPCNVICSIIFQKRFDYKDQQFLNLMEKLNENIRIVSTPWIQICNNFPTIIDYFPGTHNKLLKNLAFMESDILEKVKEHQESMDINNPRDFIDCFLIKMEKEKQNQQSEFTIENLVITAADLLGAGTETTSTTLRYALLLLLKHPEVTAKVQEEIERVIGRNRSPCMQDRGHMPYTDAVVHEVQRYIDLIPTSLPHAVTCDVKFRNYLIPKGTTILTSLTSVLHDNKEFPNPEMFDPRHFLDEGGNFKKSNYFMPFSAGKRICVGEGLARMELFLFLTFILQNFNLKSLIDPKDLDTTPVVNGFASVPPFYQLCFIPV

[10] = Oral bioavailability in Sprague-Dawley rat at 5 mg/kg measured after 24 hrs; format: ADME, organism-based; conditions: in vivo
Cytochrome P450 1A2 = Cytochrome P450 1A2 (Homo sapiens, UniProt P05177); experiment: Inhibition of CYP1A2 in human liver microsomes using 7-ethoxyresorufin as substrate substrate in presence of NADPH by LC-MS/MS analysis; format: ADME
[11] = Intrinsic clearance in human liver microsomes at 1 uM measured up to 30 mins in presence of NADPH by LC/MS analysis; format: ADME, Microsome; conditions: read-out: CLH (converted)
[12] = AUC in cynomolgus monkey at 5 mg/kg, po measured after 24 hrs; format: ADME, organism-based, Macaca fascicularis; set-up: route oral, time 24 hrs, dose 5 mg/kg; conditions: in vivo
[13] = Permeability across apical to basolateral membrane in human Caco-2 cells at 50 uM incubated for 120 mins by LC-MS/MS analysis; format: ADME, cell-based; conditions: read-out: permeability
[14] = Half life in cynomolgus monkey at 2 mg/kg, po or 0.5 mg/kg, iv administered as cassette dose measured after 24 hrs; format: ADME, organism-based, Macaca fascicularis; conditions: in vivo
Cytochrome P450 3A4 = Cytochrome P450 3A4 (Homo sapiens, UniProt P08684); experiment: Inhibition of CYP3A4 in human liver microsomes using midazolam or testosterone as substrate substrate in presence of NADPH by LC-MS/MS analysis; format: ADME
Cytochrome P450 3A4, sequence (P08684 whole entry): as the sequence (P08684 whole entry) above

Cytochrome P450 2C9 = Cytochrome P450 2C9 (Homo sapiens, UniProt P11712); experiment: Inhibition of CYP2C9 in human liver microsomes using diclofenac as substrate substrate in presence of NADPH by LC-MS/MS analysis; format: ADME
Cytochrome P450 2C9, sequence (P11712 whole entry): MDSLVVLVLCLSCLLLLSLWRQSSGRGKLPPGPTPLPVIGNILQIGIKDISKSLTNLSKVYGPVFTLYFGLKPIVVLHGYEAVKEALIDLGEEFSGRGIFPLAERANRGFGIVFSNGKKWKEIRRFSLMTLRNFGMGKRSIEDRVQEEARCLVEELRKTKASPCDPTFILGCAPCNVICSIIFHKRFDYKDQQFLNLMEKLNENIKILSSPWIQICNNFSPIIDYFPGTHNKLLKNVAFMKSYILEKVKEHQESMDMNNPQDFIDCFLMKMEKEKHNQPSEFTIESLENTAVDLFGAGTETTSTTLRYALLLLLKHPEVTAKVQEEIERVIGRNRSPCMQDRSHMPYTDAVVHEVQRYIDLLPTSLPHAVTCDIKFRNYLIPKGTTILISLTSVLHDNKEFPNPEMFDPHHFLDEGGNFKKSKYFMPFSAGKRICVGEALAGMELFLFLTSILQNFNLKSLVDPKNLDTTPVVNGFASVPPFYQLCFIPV

[15] = Oral bioavailability in cynomolgus monkey at 5 mg/kg measured after 24 hrs; format: ADME, organism-based, Macaca fascicularis; conditions: in vivo
Cytochrome P450 2D6 = Cytochrome P450 2D6 (Homo sapiens, UniProt P10635); experiment: Inhibition of CYP2D6 in human liver microsomes using bufuralol as substrate substrate in presence of NADPH by LC-MS/MS analysis; format: ADME
Cytochrome P450 2D6, sequence (P10635 whole entry): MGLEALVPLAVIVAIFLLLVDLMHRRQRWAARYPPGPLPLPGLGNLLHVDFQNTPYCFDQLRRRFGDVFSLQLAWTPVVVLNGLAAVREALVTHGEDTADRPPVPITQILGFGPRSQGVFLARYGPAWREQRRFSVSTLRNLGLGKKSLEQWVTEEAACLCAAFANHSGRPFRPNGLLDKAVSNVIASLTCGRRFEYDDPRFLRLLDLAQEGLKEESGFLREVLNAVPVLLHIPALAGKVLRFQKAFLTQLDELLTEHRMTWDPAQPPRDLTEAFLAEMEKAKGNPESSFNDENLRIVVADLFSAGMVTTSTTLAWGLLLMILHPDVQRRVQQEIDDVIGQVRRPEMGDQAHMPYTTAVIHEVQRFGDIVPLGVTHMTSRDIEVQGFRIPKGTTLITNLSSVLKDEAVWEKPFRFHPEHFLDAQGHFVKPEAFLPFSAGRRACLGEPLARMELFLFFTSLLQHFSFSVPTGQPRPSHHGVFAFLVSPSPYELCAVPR

[16] = Volume of distribution at steady state in cynomolgus monkey at 2 mg/kg, po or 0.5 mg/kg, iv administered as cassette dose measured after 24 hrs; format: ADME, organism-based, Macaca fascicularis; conditions: in vivo, read-out: Vdss
[17] = Half life in Sprague-Dawley rat at 2 mg/kg, po or 1 mg/kg, iv administered as cassette dose measured after 24 hrs; format: ADME, organism-based; conditions: in vivo
[18] = Volume of distribution at steady state in Sprague-Dawley rat at 2 mg/kg, po or 1 mg/kg, iv administered as cassette dose measured after 24 hrs; format: ADME, organism-based; conditions: in vivo, read-out: Vdss
[19] = AUC in cynomolgus monkey at 2 mg/kg, po or 0.5 mg/kg, iv administered as cassette dose measured after 24 hrs; format: ADME, organism-based, Macaca fascicularis; set-up: dose 2 mg/kg, time 24 hrs; conditions: in vivo
[20] = AUC in Sprague-Dawley rat at 2 mg/kg, po or 1 mg/kg, iv administered as cassette dose measured after 24 hrs; format: ADME, organism-based; set-up: time 24 hrs, dose 2 mg/kg; conditions: in vivo
[21] = Clearance in Sprague-Dawley rat at 2 mg/kg, po or 1 mg/kg, iv administered as cassette dose measured after 24 hrs relative to hepatic blood flow; format: ADME, organism-based; conditions: in vivo
hERG (KCNH2) = hERG (KCNH2) (Homo sapiens, UniProt Q12809); experiment: Inhibition of human ERG at 5 uM by patch clamp method relative to control
[22] = Clearance in cynomolgus monkey at 2 mg/kg, po or 0.5 mg/kg, iv administered as cassette dose measured after 24 hrs relative to hepatic blood flow; format: ADME, organism-based, Macaca fascicularis; conditions: in vivo
[23] = Oral bioavailability in cynomolgus monkey at 2 mg/kg administered as cassette dose measured after 24 hrs; format: ADME, organism-based, Macaca fascicularis; conditions: in vivo
[24] = Oral bioavailability in Sprague-Dawley rat at 2 mg/kg administered as cassette dose measured after 24 hrs; format: ADME, organism-based; conditions: in vivo
CYP3A4 [25] = biological target: T1, CYP3A4; experiment: Time dependent inhibition of CYP3A4 in human liver microsomes at 25 uM using midazolam as substrate substrate preincubated for 30 mins in presence of NADPH followed by substrate addition and measured after 8 mins relative to control; format: ADME; conditions: probe midazolam, time 38 min, read-out: TDI
CYP3A4 [26] = biological target: T1, CYP3A4; experiment: Time dependent inhibition of CYP3A4 in human liver microsomes at 10 uM using midazolam as substrate substrate preincubated for 30 mins in presence of NADPH followed by substrate addition and measured after 8 mins relative to control; format: ADME; conditions: probe midazolam, time 38 min, read-out: TDI

Row | Structure (SMILES) | solubility [1] [µg/mL] | IC50 [2] [nM] | IC50 [5] [nM] | IC50 [7] [nM] | half-life [14] [h] | Vd [16] [L/kg] | half-life [17] [h] | Vd [18] [L/kg] | AUC at 24 h [19] [µM·h] | AUC at 24 h [20] [µM·h] | CL [21] [%] | CL [22] [%] | bioavailability [23] [%] | further results
1 | COc1cc(OC)c(F)c(N2Cc3cnc4c(c3N(c3cccc(F)c3F)C2=O)CC(=O)N4)c1F | 77 (≈ 158 µM) | 25 |  |  |  |  |  |  |  |  |  |  |  | IC50 (NCI-H1581): 18 nM; IC50 [3]: 3.9 nM; inhibition at 30 mins, 20 µM (CYP3A4 [4]): 30%
2 | COc1cc(OC)c(F)c(N2Cc3cnc4[nH]c(-c5cnn(C)c5)cc4c3N(C)C2=O)c1F |  |  | 1.3 | 3.9 |  |  |  |  |  |  |  |  |  | IC50 (Aurora kinase B): 2.5 nM; IC50 [6]: < 1 nM; IC50 [8]: 5.7 nM
3 | CCN1C(=O)N(c2c(F)c(OC)cc(OC)c2F)Cc2cnc3c(c21)CC(=O)N3 | 10 (≈ 24.7 µM) | 20 | 288 | 407 | 2.1 | 0.46 | 1.1 | 0.51 | 12.1 | 27.3 | 11 | 11 | 73 | AUC at 24 h [9]: 8.7 µM·h; IC50 (Cytochrome P450 2C19): > 25000 nM; bioavailability [10]: 17%; IC50 (Cytochrome P450 1A2): > 25000 nM; CLint scaled at 1 µM [11]: 10 mL/min/kg; AUC at 24 h [12]: 6.41 µM·h; Papp A→B at 2 h, 50 µM [13]: 5.7 ×10⁻⁶ cm/s; IC50 (Cytochrome P450 3A4): > 25000 nM; IC50 (Cytochrome P450 2C9): > 25000 nM; bioavailability [15]: 17%; IC50 (Cytochrome P450 2D6): > 25000 nM; inhibition at 5 µM (hERG (KCNH2)): 0%
4 | CCN1CCN(Cc2cc3c4c(cnc3[nH]2)CN(c2c(F)c(OC)cc(OC)c2F)C(=O)N4C)CC1 | 942 (≈ 1880 µM) | 24 |  |  | 12 | 0.41 | 11.9 | 5.12 | 5.87 | 1.17 | 51 | 8 | 26 | bioavailability [24]: 49%; inhibition at 8 min, 25 µM (CYP3A4 [25]): 45%; inhibition at 8 min, 10 µM (CYP3A4 [26]): 14%
